Our source for the relative viability values is the supplement of paper PMC10307832.

What all share (assay): relative viability (nuclei count vs DMSO), 5 days (fraction); higher = more cells survive
Compound in the test “AGI-6780 + Foretinib”: O=C(Nc1cccc(C(F)(F)F)c1)Nc1cc(S(=O)(=O)NC2CC2)ccc1-c1ccsc1 [AGI-6780] + COc1cc2c(Oc3ccc(NC(=O)C4(C(=O)Nc5ccc(F)cc5)CC4)cc3F)ccnc2cc1OCCCN1CCOCC1 [Foretinib] (partner 0.25 µM)
The method, boiled down:
(§1)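 Each reported value is a median over duplicate plates. It expresses relative viability: treated-well nuclei count divided by vehicle-well nuclei count. Lung cancer cell lines in 1536-well plates were dosed by pin tool a day after seeding, alone with one drug or with a fixed anchor-drug dose plus five library-drug doses (not always all listed) in √10 steps, and nuclei were counted after 5 days.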

Compound in the test “AGI-6780 + Pictilisib”: O=C(Nc1cccc(C(F)(F)F)c1)Nc1cc(S(=O)(=O)NC2CC2)ccc1-c1ccsc1 [AGI-6780] + CS(=O)(=O)N1CCN(Cc2cc3nc(-c4cccc5[nH]ncc45)nc(N4CCOCC4)c3s2)CC1 [Pictilisib] (partner 1 µM)
The method, boiled down:
as §1

Compound in the test “AGI-6780 + AZD7762”: O=C(Nc1cccc(C(F)(F)F)c1)Nc1cc(S(=O)(=O)NC2CC2)ccc1-c1ccsc1 [AGI-6780] + NC(=O)Nc1cc(-c2cccc(F)c2)sc1C(=O)N[C@H]1CCCNC1 [AZD7762] (partner 0.2 µM)
Put shortly: as §1

Compound in the test “AGI-6780 + Vorinostat”: O=C(Nc1cccc(C(F)(F)F)c1)Nc1cc(S(=O)(=O)NC2CC2)ccc1-c1ccsc1 [AGI-6780] + O=C(CCCCCCC(=O)Nc1ccccc1)NO [Vorinostat] (partner 1 µM)
The method, boiled down:
as §1

HOP-62: the relative viability with AGI-6780 + Foretinib (first compound 0.08 µM) amounted to 1.08; in the test with AGI-6780 + Foretinib (first compound 0.253 µM), 1.06; with AGI-6780 + Foretinib (first compound 0.8 µM), 1.14; in the test with AGI-6780 + Foretinib (first compound 2.53 µM) it was 1.16; with AGI-6780 + Foretinib (first compound 8 µM) it was 1.15; in the test with AGI-6780 + Pictilisib (first compound 0.08 µM), 0.815. Besides, the relative viability with AGI-6780 + Pictilisib (first compound 0.253 µM) was 0.928; with AGI-6780 + Pictilisib (first compound 0.8 µM), 0.88; in the test with AGI-6780 + Pictilisib (first compound 2.53 µM), 0.651; in the test with AGI-6780 + Pictilisib (first compound 8 µM) it was 0.786; with AGI-6780 + AZD7762 (first compound 0.08 µM) it was 0.659; with AGI-6780 + AZD7762 (first compound 0.253 µM) it was 0.592. Moreover, the relative viability in the test with AGI-6780 + AZD7762 (first compound 0.8 µM) is 0.826; in the test with AGI-6780 + AZD7762 (first compound 2.53 µM) it was 0.846; with AGI-6780 + AZD7762 (first compound 8 µM), 0.82; in the test with AGI-6780 + Vorinostat (first compound 0.08 µM), 0.61; with AGI-6780 + Vorinostat (first compound 0.253 µM), 0.833; in the test with AGI-6780 + Vorinostat (first compound 0.8 µM), 0.655. The relative viability was 0.617 with AGI-6780 + Vorinostat (first compound 2.53 µM) and 0.813 with AGI-6780 + Vorinostat (first compound 8 µM).

Turning to ChaGo-K-1, the relative viability in the test with AGI-6780 + Foretinib (first compound 0.08 µM) worked out at 0.986; with AGI-6780 + Foretinib (first compound 0.253 µM) it was 0.977; with AGI-6780 + Foretinib (first compound 0.8 µM) it was 0.946; in the test with AGI-6780 + Foretinib (first compound 2.53 µM), 0.751; with AGI-6780 + Foretinib (first compound 8 µM), 0.948; with AGI-6780 + Pictilisib (first compound 0.08 µM), 0.593. The relative viability is 0.809 with AGI-6780 + Pictilisib (first compound 0.253 µM); 0.938 with AGI-6780 + Pictilisib (first compound 0.8 µM); 0.552 with AGI-6780 + Pictilisib (first compound 2.53 µM); 0.704 in the test with AGI-6780 + Pictilisib (first compound 8 µM); 0.851 with AGI-6780 + AZD7762 (first compound 0.08 µM); 0.932 in the test with AGI-6780 + AZD7762 (first compound 0.253 µM). Moreover, the relative viability came out at 0.932 in the test with AGI-6780 + AZD7762 (first compound 0.8 µM); 0.812 in the test with AGI-6780 + AZD7762 (first compound 2.53 µM); 0.919 in the test with AGI-6780 + AZD7762 (first compound 8 µM); 0.727 with AGI-6780 + Vorinostat (first compound 0.08 µM); 0.787 in the test with AGI-6780 + Vorinostat (first compound 0.253 µM); 0.745 with AGI-6780 + Vorinostat (first compound 0.8 µM). Besides, the relative viability in the test with AGI-6780 + Vorinostat (first compound 2.53 µM) turned out to be 0.63; with AGI-6780 + Vorinostat (first compound 8 µM) it was 0.825.

In the case of NCI-H322M, the relative viability is 1.06 with AGI-6780 + Foretinib (first compound 0.08 µM); 1.01 in the test with AGI-6780 + Foretinib (first compound 0.253 µM); 1.1 with AGI-6780 + Foretinib (first compound 0.8 µM); 1.07 in the test with AGI-6780 + Foretinib (first compound 2.53 µM); 0.982 with AGI-6780 + Foretinib (first compound 8 µM); 0.518 in the test with AGI-6780 + Pictilisib (first compound 0.08 µM). For the same cell line, the relative viability stood at 0.572 with AGI-6780 + Pictilisib (first compound 0.253 µM); 0.526 with AGI-6780 + Pictilisib (first compound 0.8 µM); 0.585 in the test with AGI-6780 + Pictilisib (first compound 2.53 µM); 0.524 in the test with AGI-6780 + Pictilisib (first compound 8 µM); 0.767 with AGI-6780 + AZD7762 (first compound 0.253 µM); 0.551 with AGI-6780 + AZD7762 (first compound 0.8 µM). The relative viability with AGI-6780 + AZD7762 (first compound 2.53 µM) is 0.555; with AGI-6780 + AZD7762 (first compound 8 µM) it was 0.653; with AGI-6780 + Vorinostat (first compound 0.253 µM) it was 0.956; in the test with AGI-6780 + Vorinostat (first compound 0.8 µM), 1.03; in the test with AGI-6780 + Vorinostat (first compound 2.53 µM), 0.855; with AGI-6780 + Vorinostat (first compound 8 µM), 0.855.

Turning to HCC-78, the relative viability was found to be 0.53 with AGI-6780 + Foretinib (first compound 0.253 µM); 0.676 with AGI-6780 + Foretinib (first compound 0.8 µM); 0.606 with AGI-6780 + Foretinib (first compound 2.53 µM); 0.688 in the test with AGI-6780 + Foretinib (first compound 8 µM); 0.159 with AGI-6780 + Pictilisib (first compound 0.08 µM); 0.241 with AGI-6780 + Pictilisib (first compound 0.253 µM). The relative viability in the test with AGI-6780 + Pictilisib (first compound 0.8 µM) was determined as 0.299; in the test with AGI-6780 + Pictilisib (first compound 2.53 µM) it was 0.152; in the test with AGI-6780 + Pictilisib (first compound 8 µM), 0.249; with AGI-6780 + AZD7762 (first compound 0.08 µM) it was 0.978; with AGI-6780 + AZD7762 (first compound 0.253 µM) it was 0.697; with AGI-6780 + AZD7762 (first compound 0.8 µM), 0.837. Besides, the relative viability with AGI-6780 + AZD7762 (first compound 2.53 µM) stood at 0.684; with AGI-6780 + AZD7762 (first compound 8 µM), 0.681; with AGI-6780 + Vorinostat (first compound 0.08 µM), 0.527; in the test with AGI-6780 + Vorinostat (first compound 0.253 µM), 0.411; in the test with AGI-6780 + Vorinostat (first compound 0.8 µM), 0.577; with AGI-6780 + Vorinostat (first compound 2.53 µM), 0.432. Besides, in the test with AGI-6780 + Vorinostat (first compound 8 µM), the relative viability turned out to be 0.389.
